In patent US10702537B2, “Devices and methods of treating methamphetamine addiction and medical and behavioral consequences of methamphetamine use and of HIV infection” (Board of Supervisors of Louisiana State University and …, priority 2015, dated 2020):
“Also recorded” adds a separate entry of the source. Like-named read-outs stand apart in the source and are kept apart here.

Legend:
male rats = test: methamphetamine self-administration in male rats; format: in vivo, rat; details: for antagonism of oxazepam's effect on methamphetamine self-administration: standard dose methamphetamine; for low dose methamphetamine self-administration: alprazolam 4 mg/kg IP, very low doses of methamphetamine, FIG. 3, 5A
female Wistar rats = test: methamphetamine drug discrimination; format: in vivo, rat; details: female Wistar rats trained to discriminate 1 mg/kg methamphetamine (IP) from saline; pretreatment; alprazolam 4 mg/kg IP at low doses 0.125 and 0.25 mg/kg methamphetamine; FIG. 2A
Method: (§1) Adult female Wistar rats were trained to discriminate 1 mg/kg methamphetamine (IP) from saline using food pellet reinforcement according to previously published procedures (Mantsch and Goeders, 1999, 1998). Pretreatment with alprazolam (4 mg/kg, IP) enhanced the methamphetamine discriminative stimulus at doses of 0.125 and 0.25 mg/kg methamphetamine. […] These observations have been confirmed using a conditioned place preference model as well, evidencing that benzodiazepines differentially modulate the rewarding and reinforcing properties of methamphetamine. […] Thus, this is an extraordinarily consistent pattern across three very different models of drug-related behaviors.

female rats [1] = test: cocaine drug discrimination; format: in vivo, rat; details: pretreatment, FIG. 2B
rats [2] = test: methamphetamine drug-induced reinstatement (D-IR) study; format: in vivo, rat; details: FIG. 4
[3] = cocaine-related behaviors; details: in vivo
Method: Benzodiazepines affect cocaine and methamphetamine-related behaviors differently—The inventors' laboratory has long been interested in the role for benzodiazepines in drug addiction.
as §1

humans = details: Lile et al., cited from earlier work
[4] = test system: drug-dependent individuals; details: cited from earlier work
TSPO [5] = molecular target: TSPO (Rattus norvegicus, UniProt P16257); test: ex vivo homogenate binding, TSPO; details: structure-activity relationships, confirmed by ex vivo homogenate binding in rat brain tissue
Chain of TSPO (Rattus norvegicus, UniProt P16257) (P16257 whole entry): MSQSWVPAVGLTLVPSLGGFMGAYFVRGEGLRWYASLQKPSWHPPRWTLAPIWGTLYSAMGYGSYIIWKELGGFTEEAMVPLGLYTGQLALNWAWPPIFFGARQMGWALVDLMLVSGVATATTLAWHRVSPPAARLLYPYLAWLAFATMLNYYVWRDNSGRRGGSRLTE

GABAA receptor = test: ex vivo homogenate binding, GABAA receptor; details: structure-activity relationships, confirmed by ex vivo homogenate binding in rat brain tissue
rats [6] = details: cited from earlier work
female rats [7] = test: methamphetamine self-administration in female rats; format: in vivo, rat
Excerpt: Turning to FIGS. 6 and 7, the inventors tested the TSPO compound Ro5-4864 in an animal model of methamphetamine self-administration in male and female rats. […] The inventors compared these effects to the effects of the benzodiazepine alprazolam. […] The inventors also show preliminary data with Ro7-9277 with female rats.

[8] = humans, cited from earlier work
[9] = rats, intraperitoneal injection; cited from earlier work
TSPO [10] = details: cited from earlier work
TSPO mRNA = details: rats; 1.0 mg/kg IP twice per day for 2 weeks, withdrawn for 7 days; cited from earlier work
[11] = male rats trained at 0.06 mg/kg/infusion, pretreatment

SMILES: CCC(C)N(C)C(=O)c1cc2ccccc2c(-c2ccccc2Cl)n1 (stereo not shown) [PK11195]
- antagonism of oxazepam's effect on methamphetamine self-administration (male rats; male rats, FIG. 5B): partially blocked
- antagonism of oxazepam's effect on methamphetamine self-administration (male rats; male rats, FIG. 5B, listed as PKII195): blocked

SMILES: Cc1nnc2n1-c1ccc(Cl)cc1C(c1ccccc1)=NC2 [alprazolam, 8-chloro-1-methyl-5-phenyl-4H-(1,2,4)triazolo-1,4-benzodiazepine]
- methamphetamine discriminative stimulus effects (female Wistar rats): enhanced
- cocaine discriminative stimulus effects (female rats [1]): did not affect; also recorded: no effect
- low dose methamphetamine self-administration (male rats; [11]): enhanced; also recorded: significant increases
- low dose methamphetamine-induced reinstatement (rats [2]; low-dose priming injection of methamphetamine): enhanced; also recorded: potentiated
- cocaine-related behaviors [3]: decrease; also recorded: reduce
- subjective effects of the methamphetamine high (humans; benzodiazepine given acutely at the same time as the stimulant): reduced
- desirability among benzodiazepines (abuse liability) [4]: one of the most desired
- binding to the TSPO (TSPO [5]): low affinity
- binding to the GABAA receptor (GABAA receptor): binds selectively

SMILES: CCOC(=O)c1ncn2c1CN(C)C(=O)c1cc(F)ccc1-2 [flumazenil]
- antagonism of alprazolam's effect on low-dose methamphetamine self-administration (male rats; antagonist administered 30 minutes prior to alprazolam, FIG. 5A): inhibited; also recorded: blocked
- antagonism of oxazepam's effect on methamphetamine self-administration (male rats; male rats, FIG. 5B): partially blocked

SMILES: CC(=O)[C@H]1CC[C@H]2[C@@H]3CC[C@H]4C[C@H](O)CC[C@]4(C)[C@H]3CC[C@]12C [Allopregnanolone]
- cocaine-related responding (rats [6]; both genders): decrease
- methamphetamine-related responding (rats [6]; female rats): decrease

SMILES: CN1C(=O)CN=C(c2ccc(Cl)cc2)c2cc(Cl)ccc21 [Ro5-4864, 4′,7-Dichloro-1,3-dihydro-1-methyl-5-phenyl-2H-1,4-benzodiazepin-2-one]
- methamphetamine self-administration (male rats; male rats, FIG. 6): dose-related decrease
- sensitivity of female rats compared to male rats to the effect on methamphetamine self-administration (female rats [7]; FIG. 7 versus FIG. 6): significantly more sensitive
- methamphetamine self-administration (female rats [7]; female rats, FIG. 7): dose-related decrease

SMILES: O=C1Nc2ccc(Cl)cc2C(c2ccccc2)=NC1O (stereo not shown) [oxazepam, 7-chloro-1,3-dihydro-3-hydroxy-5-phenyl-2H-1,4-benzodiazepin-2-one]
- methamphetamine discriminative stimulus effects (female Wistar rats): dose-dependently decreased
- cocaine discriminative stimulus effects (female rats [1]): dose-dependently decreased
- low dose methamphetamine self-administration (male rats; [11]): no effect
- methamphetamine self-administration across all doses tested (male rats; male rats trained at 0.06 mg/kg/infusion, pretreatment, FIG. 3): decreased; also recorded: significant decreases
- standard dose methamphetamine self-administration (male rats; male rats, FIG. 5B): decreased
- methamphetamine-induced reinstatement (rats [2]; all doses tested): decreased
- cocaine-related behaviors [3]: decrease; also recorded: reduce
- subjective effects of d-amphetamine (humans; benzodiazepine given acutely at the same time as amphetamine): no significant effect
- desirability among benzodiazepines (abuse liability) [4]: one of the least desirable
- binding to the TSPO (TSPO [5]): binds
- binding to the GABAA receptor (GABAA receptor): binds

SMILES: CN[C@@H](C)Cc1ccccc1 [methamphetamine]
- Tmax of methamphetamine in blood ([8]; intranasal administration): 2.82 ± 0.13 h
- Tmax of methamphetamine in blood ([8]; intravenously administered): 0.1 ± 0.183 h
- Tmax of methamphetamine in blood ([8]; oral, range 180-300 min): 3.6 h
- Tmax of methamphetamine in blood ([8]; smoked): 2.5 ± 0.5 h
- Tmax of methamphetamine [9]: 7.5 ± 2.8 min
- TSPO binding (TSPO [10]; self-administration of methamphetamine 0.3 mg/kg/inf): enhances
- TSPO binding in the striatum, cerebellum and hippocampus (TSPO [10]; subchronic repeated doses 4×10 mg/kg SC every two hours, within 72 hours): increase
- TSPO mRNA (TSPO mRNA): enhances
